Measurements as given in article PMC9865825, “Synthesis and Antiparasitic Activity of New Trithiolato-Bridged Dinuclear Ruthenium(II)-arene-carbohydrate Conjugates” (Molecules, 2023).
Like-named read-outs stand apart in the source and are kept apart here.

Assays:
[1] = system: T. gondii β-gal tachyzoites; parameters: method as in PMID 34144354, PMID 32347622, doi:10.3390/inorganics9080059, PMID 36500266; conditions: cited from earlier work; for T. Gondii β-gal Growth (%): tachyzoites in HFF, vs 0.1% DMSO control = 100%
[2] = system: human foreskin fibroblasts (HFF); parameters: method as in PMID 34144354, PMID 32347622, doi:10.3390/inorganics9080059, PMID 36500266; conditions: cited from earlier work; for HFF Viability (%): non-infected HFF, vs 0.1% DMSO control = 100%; for HFF Viability at 2.5 µM (%): control 0.25% DMSO = 100%
[3] = system: T. gondii β-gal tachyzoites; test: In vitro proliferation of T. gondii β-gal tachyzoites in HFF, β-galactosidase colorimetric test (primary screening and IC50); format: cell-based, Toxoplasma gondii; conditions: for T. Gondii β-gal Growth (%): 72 h, tachyzoites in HFF, vs 0.1% DMSO control = 100%; for IC50 fold lower compared to pyrimethamine: T. gondii β-gal, pyrimethamine IC50 = 0.326 µM; for IC50: eight serial concentrations 7 nM to 1 µM
Protocol: In a primary screening, each compound was evaluated at two concentrations 0.1 and 1 µM and added to the media prior to the infection as previously described. Control non-infected non-treated HFF cultures and T. gondii β-gal infected but not-treated cultures were cultivated in complete medium containing 0.01 or 0.1% DMSO. The 96-well plates were incubated for 72 h at 37 °C/5% CO2 as previously described.
For the IC50 determination on T. gondii β-gal, eight serial concentrations ranging from 7 nM to 1 μM were tested for each selected compound as previously described and the β-galactosidase assay was performed as reported. Briefly, infected HFF cultures in 96-well plates were lysed with PBS containing 0.05% Triton X-100. Then the substrate chlorophenolred-β-D-galactopyranoside (CPRG; Roche Diagnostics, Rotkreuz, Switzerland) was added in a final concentration of 0.5 mM. Absorption was measured at 570 nm wavelength using an EnSpire® multimode plate reader (PerkinElmer, Inc., Waltham, MA, USA).

[4] = system: human foreskin fibroblasts (HFF); test: in vitro
Protocol: The viability of treated HFF was measured by the alamarBlue metabolic assay, and the proliferation of T. gondii β-gal was quantified by the β-galactosidase colorimetric test. In both cases, results are expressed as percentage (%) compared to control parasitic and host cells treated with 0.1% DMSO for which proliferation and viability were set to 100% (Table 1).
All tissue culture media were purchased from Gibco-BRL, and biochemical agents from Sigma-Aldrich. […] Transgenic T. gondii β-gal tachyzoites (expressing the β-galactosidase gene from Escherichia coli) from RH strain were kindly provided by Prof.
The screening sequence for the compounds was described in previous reports. All compounds were prepared as 1 mM stock solutions from powder in dimethyl sulfoxide (DMSO, Sigma, St. Louis, MO, USA). For in vitro activity and cytotoxicity assays, HFF were seeded at 5 × 10^3/well in 96 well plates and allowed to grow to confluence in complete culture medium at 37 °C and 5% CO2.
All calculations were performed using the corresponding software tool contained in the Excel software package (Microsoft, Redmond, WA, USA). […] Then the medium was removed, the plates were washed once with PBS and 200 μL of resazurin (1:200 dilution in PBS) were added to each well. […] Fluorescence was measured at two different time points: T0 as starting timepoint and T5h as at 5 h later. Relative fluorescence units were calculated from time points with linear increases.

[5] = Stability in DMSO-d6 followed by 1H NMR; conditions: 25 °C, 5 min and more than 1 month after sample preparation

SMILES	T. Gondii β-gal Growth (%) ([1]; 0.1 µM)	T. Gondii β-gal Growth (%) ([1]; 1 µM)	HFF Viability (%) ([2]; 0.1 µM)	HFF Viability (%) ([2]; 1 µM)	T. Gondii β-gal Growth (%) ([3]; 0.1 µM)	T. Gondii β-gal Growth (%) ([3]; 1 µM)	IC50 fold lower compared to pyrimethamine [3]	IC50 [3]	HFF Viability (%) ([4]; 0.1 µM)	HFF Viability (%) ([4]; 1 µM)	HFF Viability at 2.5 µM (%) [4]	IC50 [1]	Stability in DMSO-d6 (1H NMR spectra) [5]	HFF Viability at 2.5 µM (%) [2]
CC(C)(C)c1ccc(C[S-])cc1.CC(C)(C)c1ccc(C[S-])cc1.Cc1ccc(C(C)C)cc1.Cc1ccc(C(C)C)cc1.O=C(O)Cc1ccc([S-])cc1.[Cl-].[Ru+2].[Ru+2] [Compound 4]	114 ± 2%	110 ± 2%	91 ± 4%	73 ± 1%	–	–	–	–	–	–	–	–	–	–
CC(=O)OC[C@H]1O[C@@H](OCCCn2cc(CCCC(=O)Nc3ccc([S-])cc3)nn2)[C@H](OC(C)=O)[C@@H](OC(C)=O)[C@H]1OC(C)=O.CC(C)(C)c1ccc(C[S-])cc1.CC(C)(C)c1ccc(C[S-])cc1.Cc1ccc(C(C)C)cc1.Cc1ccc(C(C)C)cc1.[Cl-].[Ru+2].[Ru+2] [Compound 23]	–	–	–	–	85 ± 1%	1 ± 0%	10 fold	32 nM	99 ± 1%	101 ± 1%	92%	–	–	–
CCc1nc(N)nc(N)c1-c1ccc(Cl)cc1 [Pyrimethamine, reference compound]	–	–	–	–	–	–	–	–	–	–	–	326 nM	–	–
CC(=O)OC[C@H]1O[C@@H](OCCCc2cn(Cc3ccccc3[S-])nn2)[C@H](OC(C)=O)[C@@H](OC(C)=O)[C@@H]1OC(C)=O.CC(C)(C)c1ccc(C[S-])cc1.CC(C)(C)c1ccc(C[S-])cc1.Cc1ccc(C(C)C)cc1.Cc1ccc(C(C)C)cc1.[Cl-].[Ru+2].[Ru+2] [Compound 25]	–	–	–	–	75 ± 2%	27 ± 0%	–	–	98 ± 1%	97 ± 1%	–	–	no significant modifications	–
CC(C)(C)c1ccc(C[S+]2[Ru-]3[S+](Cc4ccc(C(C)(C)C)cc4)[Ru-]2[S+]3c2ccccc2CN=[N+]=[N-])cc1.Cc1ccc(C(C)C)cc1.Cc1ccc(C(C)C)cc1.[Cl-] (centres unmarked) [Compound 9]	9 ± 1%	1 ± 1%	96 ± 1%	64 ± 1%	–	–	–	–	–	–	–	48 nM	–	11%
CC(=O)OC[C@H]1O[C@@H](OCCn2cc(CCCC(=O)Nc3ccc([S-])cc3)nn2)[C@H](OC(C)=O)[C@@H](OC(C)=O)[C@H]1OC(C)=O.CC(C)(C)c1ccc(C[S-])cc1.CC(C)(C)c1ccc(C[S-])cc1.Cc1ccc(C(C)C)cc1.Cc1ccc(C(C)C)cc1.[Cl-].[Ru+2].[Ru+2] [Compound 22]	–	–	–	–	73 ± 1%	2 ± 0%	–	298 nM	100 ± 0%	101 ± 0%	73%	–	no significant modifications	–
CC(C)(C)c1ccc(C[S+]2[Ru-]3[S+](Cc4ccc(C(C)(C)C)cc4)[Ru-]2[S+]3c2ccccc2CO)cc1.Cc1ccc(C(C)C)cc1.Cc1ccc(C(C)C)cc1.[Cl-] (centres unmarked) [Compound 5]	2 ± 0%	1 ± 0%	80 ± 1%	69 ± 6%	–	–	–	–	–	–	–	38 nM	–	4%
CC(=O)OC[C@H]1O[C@@H](n2cc(CCCC(=O)Oc3ccc([S-])cc3)nn2)[C@H](OC(C)=O)[C@@H](OC(C)=O)[C@@H]1OC(C)=O.CC(C)(C)c1ccc(C[S-])cc1.CC(C)(C)c1ccc(C[S-])cc1.Cc1ccc(C(C)C)cc1.Cc1ccc(C(C)C)cc1.[Cl-].[Ru+2].[Ru+2] [Compound 19]	–	–	–	–	9 ± 1%	0 ± 0%	–	18 nM	102 ± 1%	97 ± 1%	29%	–	–	–
C#CCCCC(=O)Nc1ccc([S+]2[Ru-]3[S+](Cc4ccc(C(C)(C)C)cc4)[Ru-]2[S+]3Cc2ccc(C(C)(C)C)cc2)cc1.Cc1ccc(C(C)C)cc1.Cc1ccc(C(C)C)cc1.[Cl-] (centres unmarked) [Compound 7]	21 ± 2%	0 ± 0%	–	–	–	–	–	–	–	–	–	38 nM	–	–
CC(C)(C)c1ccc(C[S-])cc1.CC(C)(C)c1ccc(C[S-])cc1.Cc1ccc(C(C)C)cc1.Cc1ccc(C(C)C)cc1.Oc1ccc([S-])cc1.[Cl-].[Ru+2].[Ru+2] [Compound 2]	66 ± 14%	2 ± 0%	76 ± 6%	46 ± 6%	–	–	–	–	–	–	–	117 nM	–	56%
CC(=O)OC[C@H]1O[C@@H](OCCCc2cn(Cc3ccccc3[S-])nn2)[C@H](OC(C)=O)[C@@H](OC(C)=O)[C@H]1OC(C)=O.CC(C)(C)c1ccc(C[S-])cc1.CC(C)(C)c1ccc(C[S-])cc1.Cc1ccc(C(C)C)cc1.Cc1ccc(C(C)C)cc1.[Cl-].[Ru+2].[Ru+2] [Compound 26]	–	–	–	–	89 ± 1%	0 ± 0%	2 fold	153 nM	98 ± 1%	99 ± 1%	97%	–	no significant modifications	–
C#CCNC(=O)Cc1ccc([S-])cc1.CC(C)(C)c1ccc(C[S-])cc1.CC(C)(C)c1ccc(C[S-])cc1.Cc1ccc(C(C)C)cc1.Cc1ccc(C(C)C)cc1.[Cl-].[Ru+2].[Ru+2] [Compound 8]	52 ± 13%	3 ± 1%	71 ± 2%	46 ± 6%	–	–	–	–	–	–	–	–	–	–
CC(=O)OC[C@H]1O[C@@H](OCCn2cc(CCCC(=O)Nc3ccc([S-])cc3)nn2)[C@H](OC(C)=O)[C@@H](OC(C)=O)[C@@H]1OC(C)=O.CC(C)(C)c1ccc(C[S-])cc1.CC(C)(C)c1ccc(C[S-])cc1.Cc1ccc(C(C)C)cc1.Cc1ccc(C(C)C)cc1.[Cl-].[Ru+2].[Ru+2] [Compound 21]	–	–	–	–	87 ± 1%	1 ± 0%	–	87 nM	100 ± 1%	101 ± 0%	–	–	–	–
C#CCCCC(=O)Oc1ccc([S-])cc1.CC(C)(C)c1ccc(C[S-])cc1.CC(C)(C)c1ccc(C[S-])cc1.Cc1ccc(C(C)C)cc1.Cc1ccc(C(C)C)cc1.[Cl-].[Ru+2].[Ru+2] [Compound 6]	–	–	–	–	4 ± 0%	0 ± 0%	–	23 nM	–	–	–	–	–	–
CC(C)(C)c1ccc(C[S+]2[Ru-]3[S+](Cc4ccc(C(C)(C)C)cc4)[Ru-]2[S+]3c2ccc(N)cc2)cc1.Cc1ccc(C(C)C)cc1.Cc1ccc(C(C)C)cc1.[Cl-] (centres unmarked) [Compound 3]	57 ± 1%	2 ± 0%	74 ± 2%	48 ± 1%	–	–	–	–	–	–	–	153 nM	–	51%
